Measurements taken from patent US8895474B2, “Herbicidally active cyclopentanediones and derivatives thereof, and their use in controlling weeds” (Syngenta Limited, priority 2009, dated 2014).

Assays:
Assay type in all cases: in vivo
Conditions in all cases: 312 h, rate 250 g/ha, evaluated after 13 days, 100=total damage to plant, 0=no damage to plant
[1] = test system: Alopecurus myosuroides (ALOMY); assay: Pre-emergence herbicidal activity, glasshouse pot test
Experimental: (§1) Seeds of a variety of test species were sown in standard soil in pots. After cultivation for one day (pre-emergence) or after 8 days cultivation (post-emergence) under controlled conditions in a glasshouse (at 24/16° C., day/night; 14 hours light; 65% humidity), the plants were sprayed with an aqueous spray solution derived from the formulation of the technical active ingredient in acetone/water (50:50) solution containing 0.5% Tween 20 (polyoxyethelyene sorbitan monolaurate, CAS RN 9005-64-5). The test plants were then grown in a glasshouse under controlled conditions in a glasshouse (at 24/16° C., day/night; 14 hours light; 65% humidity) and watered twice daily. After 13 days for pre and post-emergence, the test was evaluated (100=total damage to plant; 0=no damage to plant). Test Plants: Lolium perenne (LOLPE), Alopecurus myosuroides (ALOMY), Echinochloa crus-galli (ECHCG), and Avena fatua (AVEFA). Pre-Emergence Activity

[2] = test system: Lolium perenne (LOLPE); assay: as above
Experimental: as §1

[3] = test system: Avena fatua (AVEFA); assay: as above
Experimental: as §1

[4] = test system: Echinochloa crus-galli (ECHCG); assay: as above
Experimental: as §1

[5] = test system: Alopecurus myosuroides (ALOMY); assay: Post-emergence herbicidal activity, glasshouse pot test
Experimental: as §1, with “Post-Emergence” for “Pre-Emergence”

[6] = test system: Lolium perenne (LOLPE); assay: as above
Experimental: as §1, with “Post-Emergence” for “Pre-Emergence”

[7] = test system: Avena fatua (AVEFA); assay: as above
Experimental: as §1, with “Post-Emergence” for “Pre-Emergence”

[8] = test system: Echinochloa crus-galli (ECHCG); assay: as above
Experimental: as §1, with “Post-Emergence” for “Pre-Emergence”

Structure (SMILES) | pest or weed control at 250 g/ha [1] [%] | pest or weed control at 250 g/ha [2] [%] | pest or weed control at 250 g/ha [3] [%] | pest or weed control at 250 g/ha [4] [%] | pest or weed control at 250 g/ha [5] [%] | pest or weed control at 250 g/ha [6] [%] | pest or weed control at 250 g/ha [7] [%] | pest or weed control at 250 g/ha [8] [%]
CCc1ccc(Oc2ccc(F)cc2)cc1C1=C(O)[C@H]2[C@H]3CC[C@H](C3)[C@H]2C1=O [Compound A-23] | 0 | 30 | 0 | 80 | 50 | 20 | 0 | 60
CCc1ccc(Oc2ccc(Cl)cc2F)cc1C1=C(O)CCC1=O [Compound A-40] | 0 | 10 | 0 | 40 | 10 | 10 | 10 | 30
CCc1ccc(Oc2ccc(Br)cc2Cl)cc1C1=C(O)[C@H]2[C@@H](C1=O)[C@@H]1CC[C@H]2O1 [Compound A-9] | 80 | 100 | 90 | 70 | 90 | 70 | 100 | 90
CCc1ccc(Oc2ccc(Cl)cc2Cl)cc1C1=C(O)[C@H]2[C@@H](C1=O)[C@@H]1CC[C@H]2O1 [Compound A-44] | 80 | 90 | 80 | 80 | 80 | 90 | 80 | 80
CCc1ccc(Oc2ccc(Br)cc2F)cc1C1=C(O)[C@H]2[C@H]3CC[C@H](C3)[C@H]2C1=O [Compound A-27] | 20 | 40 | 0 | 60 | 60 | 80 | 70 | 80
CCc1ccc(Oc2ncc(Cl)cc2F)cc1C1=C(O)[C@H]2[C@H]3CC[C@H](C3)[C@H]2C1=O [Compound A-11] | 30 | 80 | 50 | 100 | 80 | 70 | 90 | 100
CCc1ccc(Oc2ccc(Cl)cc2F)cc1C1=C(O)[C@H]2[C@H]3CC[C@H](C3)[C@H]2C1=O [Compound A-25] | 20 | 70 | 30 | 70 | 50 | 60 | 40 | 90
CCc1ccc(Oc2ccc(Br)cc2Cl)cc1C1=C(O)[C@H]2[C@H]3CC[C@H](C3)[C@H]2C1=O [Compound A-20] | 50 | 50 | 10 | 60 | 30 | 20 | 0 | 70
CCc1ccc(Oc2ccc3cc(Cl)ccc3n2)cc1C1=C(O)CCC1=O [Compound A-43] | 40 | 50 | 10 | 60 | 60 | 30 | 30 | 100
CCc1ccc(Oc2ccc(C(F)(F)F)cc2[N+](=O)[O-])cc1C1=C(O)C2C(C1=O)[C@H]1CC[C@@H]2CC1 (stereo partly shown) [Compound A-105] | 10 | 40 | 0 | 60 | 40 | 30 | 40 | 90
CCc1ccc(Oc2nc3c(Cl)cc(Cl)cc3s2)cc1C1=C(O)CCC1=O [Compound A-77] | 20 | 20 | 0 | 90 | 20 | 30 | 0 | 80
CCc1ccc(Oc2cnc3ccccc3n2)cc1C1=C(O)CCC1=O [Compound A-67] | 60 | 100 | 40 | 100 | 70 | 80 | 20 | 100
CCc1ccc(Oc2ccc(C#N)c(Cl)c2)cc1C1=C(O)CCC1=O [Compound A-56] | 30 | 50 | 20 | 60 | 20 | 20 | 0 | 70
CCc1ccc(Oc2cccc(Cl)c2)cc1C1=C(O)[C@H]2[C@@H](C1=O)[C@@H]1CC[C@H]2O1 [Compound A-7] | 60 | 60 | 50 | 70 | 60 | 60 | 80 | 100
CCc1ccc(Oc2ccc(Cl)cc2)cc1C1=C(O)[C@H]2[C@@H](C1=O)[C@@H]1CC[C@H]2O1 [Compound A-1, meso-(1R,2S,6R,7S)-4-[5-(4-chlorophenoxy)-2-ethylphenyl]-10-oxatricyclo[5.2.1.0^2,6]decane-3,5-dione] | 70 | 70 | 70 | 70 | 100 | 80 | 80 | 100
CCc1ccc(Oc2ccc(F)cc2)cc1C1=C(O)[C@H]2[C@@H](C1=O)[C@@H]1CC[C@H]2O1 [Compound A-46] | 80 | 80 | 60 | 100 | 80 | 80 | 60 | 100
CCc1ccc(Oc2ncc(C(F)(F)F)cc2Cl)cc1C1=C(O)C2C(C1=O)[C@H]1CC[C@@H]2CC1 (stereo partly shown) [Compound A-88] | 90 | 100 | 40 | 100 | 90 | 90 | 100 | 100
CCc1ccc(Oc2cnc3cc(Cl)ccc3n2)cc1C1=C(O)C2C(C1=O)[C@H]1CC[C@@H]2CC1 (stereo partly shown) [Compound A-13, 2-[5-(6-chloroquinoxalin-2-yloxy)-2-ethylphenyl]hexahydro-4,7-ethanoindene-1,3-dione] | 50 | 60 | 20 | 80 | 90 | 90 | 100 | 100
CCc1ccc(Oc2nc3ccc(OC)cc3s2)cc1C1=C(O)CCC1=O [Compound A-75] | 30 | 80 | 20 | 100 | 10 | 20 | 0 | 40
CCc1ccc(Oc2ccc(Cl)cc2)cc1C1=C(O)C2C(C1=O)[C@H]1CC[C@@H]2CC1 (stereo partly shown) [Compound A-31] | 20 | 50 | 0 | 90 | 100 | 40 | 80 | 100
